From patent US5227163A, “Lice-repellant compositions” (priority 1992, dated 1993)

Test system: lice
Test: Standard in vitro test on filter paper (petri-dish lice repellency)
Settings: 10 min, 20±3° C.
Description: Screening tests were performed on many substances of the following groups: terpenes (hydrocarbons), terpenoid alcohols, terpenoid esters, terpenoid aldehydes and ketones, essential oils which contain terpenoids and perfumes which contain terpenoids, as well as various general insect repellents, for lice-repellency. Each experiment included exposure of the lice to different concentrations of the tested substance, and measuring the dose response of those materials.
A petri-dish method was used to examine the repellency of the solutions for lice. A filter paper (Whatman No. 4, 5.5 cm in diameter) was secured in a petri-dish. A 100 μl portion of the test solution was placed on a corduroy patch (1.5 cm^2). The material was allowed to dry for 30 min. at room temperature (20±3° C.) and the patch was placed at the periphery of the petri-dish. A patch treated with a control solution (96% Ethanol) was placed on the opposite side of the dish. Twenty female lice which had been fed 24 hours previously were placed in the middle of the dish. A box was placed over the dish and it was covered with a dark cloth in order to keep the test area in the dark. The experiment was carried out at room temperature (20°±3° C.) and lasted 10 min. The number of lice on the treated and controlled patches as well as on the area between the patches was recorded in a protocol. The experiment was repeated three times for each sample.
% repellency was calculated by the following formula:
where: T=number of lice on the treated patch
C=number of lice on the untreated patch
The following terms were recorded:
RC80 =Concentration giving 80% repellency.
RC50 =Concentration giving 50% repellency.
RD80 =mg/cm^2 giving 80% repellency.
RD50 =mg/cm^2 giving 50% repellency.

Row | Compound | RC50 (Concentration giving 50% repellency) [%] | RC80 (Concentration giving 80% repellency) [%] | RD80 (mg/cm^2 giving 80% repellency) [mg/cm^2] | RD50 (mg/cm^2 giving 50% repellency) [mg/cm^2]
1 | CC1=CC=C(C(C)C)CC1 | 0.900 | 1.500 | 1.050 | –
2 | CC(=O)O[C@@H]1C[C@H]2CC[C@]1(C)C2(C)C (racemic) [ISO BORNYL ACETATE] | 0.600 | 0.800 | 0.560 | –
3 | C=C(C)[C@H]1CC=C(C)CC1 [+ LIMONENE] | 2.000 | 3.000 | 2.100 | –
4 | C=C(C)[C@@H]1CC=C(C)CC1 [- LIMONENE] | 3.000 | 4.000 | 2.800 | –
5 | CC1=CCC2C(C1)C2(C)C (centres unmarked) [CARENE] | 1.000 | 2.000 | 1.400 | –
6 | C=C(C)C1CC=C(C)[C@@H](O)C1 (some centres unmarked) [CARVEOL, carveol] | 0.600 | 1.500 | 1.050 | –
7 | C=C(C)C1CC=C(C)C(OC(=O)CC)C1 (centres unmarked) [CARVYL PROPRIONATE, carvyl propionate] | 0.200 | 0.600 | 0.420 | 0.140
8 | CC(C)=CCCC(C)=CC=O [CITRAL] | 0.300 | 0.600 | 0.420 | –
9 | CC1(C)C2CCC(CO)C1C2 (stereo not drawn) [Cis MYRTANOL] | 0.600 | 1.000 | 0.700 | 0.420
10 | CC1=CC(O)C2CC1C2(C)C (stereo not drawn) [Cis VERBENOL, cis-verbenol] | 1.000 | 2.000 | 1.400 | 0.700
11 | C=C(C)C1CCC(C)C(O)C1 (centres unmarked) [DIHYDRO CARVEOL, dihydrocarveol] | 0.400 | 0.900 | 0.630 | 0.280
12 | C=C(C)C1CCC(C)C(=O)C1 (centres unmarked) [DIHYDRO CARVONE] | 0.200 | 0.500 | 0.350 | –
13 | C=CC(C)CCCC(C)(C)O (centres unmarked) [DIHYDRO MYRCENOL, dihydro-myrcenol] | 0.600 | 0.800 | 0.560 | –
14 | C=C(C)C1CCC(C)C(OC(C)=O)C1 (centres unmarked) [DIH[…]] | 0.150 | 0.300 | 0.210 | 0.105
15 | CC(C)=CCC/C(C)=C/CO [GERANIOL, geraniol] | 0.005 | 0.020 | 0.014 | –
16 | CC1C(O)CC2CC1C2(C)C (centres unmarked) [ISOPINO-CAMPHEOL, iso-pinocampheol] | 0.200 | 0.300 | 0.210 | 0.140
17 | C=C(C)[C@@H]1CC[C@@H](C)C[C@H]1O [ISOPULEGOL, isopulegol] | 0.500 | 0.800 | 0.560 | –
18 | C=CC(C)(O)CCC=C(C)C (centres unmarked) [LINALOOL, linalool] | 0.020 | 0.080 | 0.056 | –
19 | CC1CCC(C(C)C)C(O)C1 (centres unmarked) [MENTHOL, menthol] | 0.030 | 0.150 | 0.105 | –
20 | CC1CCC(C(C)C)C(OC(=O)C(C)O)C1 (centres unmarked) [MENTHYL LACTATE, menthyl lactate] | 0.050 | 0.100 | 0.070 | –
21 | CC1(C)C2CC=C(CO)C1C2 (centres unmarked) [MYRTENOL, myrtenol] | 0.500 | 0.900 | 0.630 | 0.350
22 | CC(C)=CCC/C(C)=C\CO [NEROL, nerol] | 0.500 | 0.800 | 0.560 | –
23 | C=C(C)[C@@H]1CC=C(CO)CC1 [PERILLIL ALCOHOL, perillyl alcohol] | 0.010 | 0.030 | 0.020 | –
24 | CC(C)=C1CC[C@@H](C)CC1=O [PULEGONE] | 0.400 | 0.700 | 0.490 | –
25 | CC1=CCC(O)(C(C)C)CC1 (centres unmarked) [terpinen-4-ol] | 0.020 | 0.090 | 0.063 | –
26 | C=C1CCC2CC1C2(C)C (stereo not drawn) [β PINENE] | 0.200 | 1.100 | 0.770 | –
27 | CC(C)=CCCC(C)CCO (stereo not drawn) [β-CITRONELLOL, β-citronellol] | 0.020 | 0.070 | 0.049 | –
28 | IONONE | 0.250 | 0.600 | 0.420 | 0.170
